Test results from publication PMC10915964, “Identifying ligands for the PHD1 finger of KDM5A through high-throughput screening†” (RSC Chemical Biology, 2023).
Where no end group is shown, it is not given here. 5‑FAM = 5-carboxyfluorescein

What was measured:
[1] = molecular target: T1, GST-PHD1 (PHD1 finger of KDM5A) (Homo sapiens, UniProt P29375); assay: Competitive-binding fluorescence polarization (FP) assay, displacement of 5-FAM H3K4me0 10-mer from GST-PHD1; details: for inhibition at 1000 µM / %I at 1 mM: 1 mM compound, quadruplicate (n = 1 for R1 = OBn; n = 2 for R1 = Me); for inhibition at 1000 µM: read-out: %I at 1 mM; for IC50: HTS assay conditions, read-out: approximate IC50
T1 construct: GST-PHD1(S287-E344); made in house; host or cells: E. coli BL21 (DE3), pET41a
T1 sequence (P29375 287-344): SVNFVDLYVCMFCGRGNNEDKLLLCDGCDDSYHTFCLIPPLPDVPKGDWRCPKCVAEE
From the text: Fluorescence polarization (FP) has been widely used as a biophysical method to detect and quantify disruptions in protein–protein and protein–peptide interactions.[33,34] It served as the primary assay in the high-throughput screening (HTS) campaign to identify ligands for the PHD1 finger (Fig. 1b). The FP assay includes a GST-labeled […] construct and its H3K4me0 10-mer peptide substrate (Fig. 1c and d).[21,22] […]
Fig. 2 Dose-dependent inhibition of GST-PHD1 − H3 tail interaction by screen hits obtained from HTS of the NCI collection. […] DMSO is used as the negative (−) control (0% inhibition).
Fluorescence polarization high-throughput screening
To test the activity of purified GST-PHD1(S287-E344), direct-binding and competitive-binding fluorescence polarization (FP) were done, as previously described.3,4 For screening, GST-PHD1(S287-E344) was diluted in buffer (50 mM HEPES, pH 7.5, 50 mM KCl, 0.01% Tween-20, 1 mM TCEP) with 20 nM 5-carboxyfluorescein-labeled H3 10-mer peptide and with or without 0.1% bovine gamma globulin (BGG). This was treated as the assay buffer (with 0.1% BGG) and also as the negative control. For the positive control, 120 μM unlabeled H3K4 10-mer peptide was added to the assay buffer. The assay buffer was dispensed using the EL406 Biotek liquid dispenser onto black, round-bottom low volumes 384-microwell plates (Corning 4514) to a final volume of 10 μL per well. DMSO (10 nL or 50 nL) or screening compounds at 10 nL (ChemBridge Premium Diversity collection at 10 μM final) or 50 nL (ML fragments and NCI libraries at 50 μM final) was added to plates containing the assay buffer using the BioMek liquid handler/dispenser. The final DMSO in the samples was either 0.1% or 0.5%. Fluorescence polarization measurements were performed directly and after 45 minutes of incubation at room temperature using a Perkin Elmer Envision and XCite 2105 multimode microplate reader equipped with a stacker. Excitation light was delivered with a xenon flash lamp at 480/30 nm (BW) and emission was collected after passing through an emission filter (535/25 nm). For fluorescence polarization experiments, two 535/40 nm filters (S, P) and dual dichroic D505/D535 nm mirrors were used.
For FP-based assay optimization, the assay signal dynamic range was evaluated using the negative and positive control buffers with varying amounts of GST-PHD1 (0.5, 1, 1.5, or 2 μM) in the presence or absence of 0.1% BGG. For each condition, buffer was dispensed into 3 columns of a 384-well plate (48 wells each) using the BioMek liquid dispenser and the FP signal was recorded. The Z′ value reports on the assay robustness by reflecting both the dynamic range and the data variation associated with assay measurements.5 The Z′ value is given by the following equation: […]
where σ represents the standard deviation, PC represents the positive control, NC represents the negative control, and μ represents the mean value of the FP signal.
Screen results were analyzed using the UCSF SMDC web application called HiTS […]
(http://smdc.ucsf.edu/hits/). […]
equal to 3 standard deviations of the mean percent inhibition values, where the negative control is set to 0% inhibition and the positive control is set to 100% inhibition. Cheminformatics analysis on the screen hits was done using DataWarrior, an open-source program for data visualization and analysis with chemical intelligence.6 The Tanimoto coefficient was used to gauge the similarity and diversity of screen hits and cluster any compounds with greater than 75% similarity.
Screen hits were repurchased when available. Structurally similar derivatives were purchased when exact compounds were not available for purchase. Compound purity was confirmed by LCMS. All compounds were dissolved in DMSO-d6 to a final concentration of 40 mM unless otherwise specified. All putative screen hits were confirmed in dose-response using the competitive binding fluorescence polarization […]
assay. […]

15N-labeled PHD1 (KDM5A) = molecular target: T2, 15N-labeled PHD1 (KDM5A) (Homo sapiens, UniProt P29375); assay: 2D 1H-15N HSQC NMR binding assay; details: for perturbation of some residues: most perturbed residues
T2 construct: PHD1(S287-E344) construct; GST (N, cleaved yes); made in house; host or cells: E. coli BL21 (DE3), M9 minimal media with 15N ammonium chloride
T2 sequence (P29375 287-344): T1 sequence (P29375 287-344)
Protocol: The binding of the ChemBridge screen hits to PHD1 was further evaluated using 2D ^1H–^15N HSQC NMR spectroscopy. This direct binding method allowed us to monitor binding by observing any ligand-induced changes in the previously assigned ^1H–^15N PHD1 amino acid resonances.[12] The HSQC spectra of 50 μM ^15N-labeled PHD1 with DMSO were overlaid with the spectra of the ^15N-labeled PHD1 incubated with 1 mM compound. […] Compound 715 958 was insoluble in the NMR buffer at this concentration and was not evaluated. […]
Nuclear magnetic resonance (NMR) binding assays
A PHD1(S287-E344) construct was used in NMR studies, as previously described.4 Briefly, the GST-PHD1 fusion construct was expressed in M9 minimal media containing 15N ammonium chloride. The labeled GST-PHD1 was purified and the GST tag was cleaved as described in the Expression of GST-PHD1(S287-E344) and GST tag removal section. For 2D 1H, 15N Fast HSQC (FHSQC) binding experiments, 50 μM 15N-labeled PHD1 was used and spectra were measured after the addition of DMSO-d6 or compound at 1 mM in DMSO-d6 for single concentration experiments. The NMR samples were prepared in 50 mM HEPES pH 7.5, 150 mM KCl buffer with 5 mM BME, 100 μM ZnCl2, and 10% D2O at a final concentration of 2.4% DMSO-d6. The HSQC spectra were collected on a 600 MHz Bruker Avance NEO spectrometer equipped with an actively shielded Z-gradient […] TCI cryoprobe using programs from the pulse program library (TopSpin 4.0.6). FHSQC acquisition parameters were: NS = 8, acquisition time = 0.106 s 1H, 0.060 s 15N. All experiments were carried out at 298 K (calibrated with 4% v/v MeOH […]
For 2D 1H, 15N FHSQC titration experiments, 50 μM 15N-labeled PHD1 was incubated with 0, 0.5, 1, 2, or 4 mM B2 sample with a final concentration of 2.9% DMSO-d6 for all samples. The NMR samples were prepared in 50 mM HEPES pH 7.5, 150 mM KCl buffer with 5 mM BME, 100 μM ZnCl2, and 5% D2O. The 2D 15N FHSQC spectra for the titration series were recorded at 298 K on a Bruker 800 MHz AVANCE-I spectrometer equipped with an actively shielded Z-gradient TCI cryoprobe using programs from the pulse program library (TopSpin 4.0.8). FHSQC acquisition parameters were: NS = 8, acquisition time = 0.082 s 1H, 0.045s 15N. The analysis of the chemical shift perturbation of the amide cross-peaks during the titration with the ligand was performed using CCPNMR Analysis software and use PHD1 with 2.9% DMSO-d6 as the reference.7 Apo PHD1 backbone assignments were imported from the BMRB (entry 30808).4 The chemical shift perturbations for all the NMR experiments were calculated in CCPNMR v3.2, which uses the following equation:
∆ chemical shift = ∆H2 + 0.15(∆N)2

[2] = molecular target: GST-labeled PHD1(S283-E344) construct of KDM5A; assay: fluorescence polarisation; direct binding of C-terminal 5-FAM H3 10-mer peptide to GST-PHD1; triplicate measurements
[3] = molecular target: GST-labeled PHD1(S283-E344) construct of KDM5A (two Zn(II) ions bound (PHD zinc finger)); assay: fluorescence polarisation; competitive displacement of 5-FAM H3 10-mer (10 nM) from GST-PHD1 (2 μM) by unlabeled H3 10-mer peptide; triplicate measurements; details: both partners purified

Q: How did the inhibition at 1000 µM [1] turn out when `CC(=O)c1c(C)oc2ccc(N(C(C)=O)S(=O)(=O)c3ccc(C(=O)O)cc3)cc12` [7 917 645] was run?
A: 30%

Q: What does the source list for `CSc1nnc2c(n1)OC(c1ccncc1)Nc1ccccc1-2` (stereo not shown) [516 969]?
A: average shifts (CSP on PHD1) (15N-labeled PHD1 (KDM5A); 50 μM 15N PHD1, 1 mM compound): 0.0025–0.0033 ppm; Δδ of residue Cys322 (15N-labeled PHD1 (KDM5A); 50 μM 15N PHD1, 1 mM compound): 0.009 ppm; perturbation of some residues (15N-labeled PHD1 (KDM5A); 50 μM 15N PHD1, 1 mM compound): greater than 0.008 ppm

Q: `CCc1nnc(NS(=O)(=O)c2ccc(NC(=O)c3ccc(OC)c(OC)c3)cc2)s1` [988 385] was tested. Which “average shifts (CSP on PHD1)” value (15N-labeled PHD1 (KDM5A); 50 μM 15N PHD1, 1 mM compound) did it give?
A: ≤ 0.002 ppm

Q: And the “Δδ of residue N304” value (15N-labeled PHD1 (KDM5A); 50 μM 15N PHD1, 1 mM compound)?
A: > 0.01 ppm

Q: How did the inhibition at 1000 µM [1] turn out when `Cc1oc2ccc(NS(=O)(=O)c3ccc(C(=O)O)cc3)cc2c1C(=O)OCc1ccccc1` [990 099] was run?
A: 45%

Q: What about the IC50 ([1]; FP concentration-response) of the same molecule?
A: > 1500 µM

Q: And the “average shifts (CSP on PHD1)” value (15N-labeled PHD1 (KDM5A); 50 μM 15N PHD1, 1 mM compound)?
A: 0.0025–0.0033 ppm

Q: What about the “perturbation of some residues” value (15N-labeled PHD1 (KDM5A); 50 μM 15N PHD1, 1 mM compound) of the same molecule?
A: greater than 0.008 ppm

Q: Which “average shifts (CSP on PHD1)” value (15N-labeled PHD1 (KDM5A); 50 μM 15N PHD1, 1 mM compound) does the source give for `O=C(C1CC1)N1CCc2sc(S(=O)(=O)Nc3cccc(Cl)c3F)cc2C1` [990 856] here?
A: ≤ 0.002 ppm

Q: How did the “average shifts (CSP on PHD1)” value (15N-labeled PHD1 (KDM5A); 50 μM 15N PHD1, 1 mM compound) turn out when `Cc1c(CCC(=O)N2CCCC2C(=O)O)c(=O)oc2c(C)c(O)ccc12` (stereo not shown) [991 830] was run?
A: ≤ 0.002 ppm

Q: What does the source list for `Cc1oc2ccc(NS(=O)(=O)c3ccccc3)cc2c1C(=O)OCc1ccccc1` [Compound 8018-7366]?
A: inhibition at 1000 µM [1]: 6%; potency relative to parent hit ([1]; FP concentration-response, compared with 516 969 or 990 099): drastically reduced potency

Q: What does the source list for `CC(=O)c1c(C)oc2ccc(NS(=O)(=O)c3ccc(C(=O)O)cc3)cc12` [Compound B1, 4-(N-(3-acetyl-2-methylbenzofuran-5-yl)sulfamoyl)benzoic acid]?
A: %I at 1 mM [1]: 38%; inhibition at 1000 µM [1]: 38%

Q: Which results are given for `CC(=O)c1c(C)oc2ccc(NS(=O)(=O)c3cccc(C(=O)O)c3)cc12` [Compound B2, 3-(N-(3-acetyl-2-methylbenzofuran-5-yl)sulfamoyl)benzoic acid]?
A: %I at 1 mM [1]: 45%; inhibition at 1000 µM [1]: 45%; IC50 ([1]; FP concentration-response): ~1300 µM; chemical shift perturbations on PHD1 in titration (15N-labeled PHD1 (KDM5A); B2 at 0.5, 1, 2 and 4 mM with 50 μM 15N PHD1): chemical shift perturbations are small

Q: Which inhibition at 1000 µM [1] does the source give for `CC(=O)c1c(C)oc2ccc(NS(=O)(=O)c3ccc(C(N)=O)cc3)cc12` [Compound B3, 4-(N-(3-acetyl-2-methylbenzofuran-5-yl)sulfamoyl)benzamide] here?
A: 12%

Q: Which inhibition at 1000 µM [1] does the source give for `CC(=O)c1c(C)oc2ccc(NS(=O)(=O)c3cccc(C(N)=O)c3)cc12` [Compound B4, 3-(N-(3-acetyl-2-methylbenzofuran-5-yl)sulfamoyl)benzamide] here?
A: 9%

Q: Which inhibition at 1000 µM [1] does the source give for `CCOC(=O)c1ccc(S(=O)(=O)Nc2ccc3oc(C)c(C(C)=O)c3c2)cc1` [Compound B5, ethyl 4-(N-(3-acetyl-2-methylbenzofuran-5-yl)sulfamoyl)benzoate] here?
A: 11%

Q: Which inhibition at 1000 µM [1] does the source give for `COC(=O)c1cccc(S(=O)(=O)Nc2ccc3oc(C)c(C(C)=O)c3c2)c1` [Compound B6, methyl 3-(N-(3-acetyl-2-methylbenzofuran-5-yl)sulfamoyl)benzoate] here?
A: 4%

Q: For `CC(=O)c1c(C)oc2ccc(NS(=O)(=O)c3cccc(Cl)c3)cc12` [Compound B7, N-(3-acetyl-2-methylbenzofuran-5-yl)-3-chlorobenzenesulfonamide], which inhibition at 1000 µM [1] is on record?
A: 13%

Q: `C[C@H](N)C(=O)N[C@@H](CCCNC(=N)N)C(=O)N[C@H](C(=O)N[C@@H](CCCCN)C(=O)N[C@@H](CCC(N)=O)C(=O)N[C@H](C(=O)N[C@@H](C)C(=O)N[C@@H](CCCNC(=N)N)C(=O)N[C@@H](CCCCN)C(=O)N[C@@H](CO)C(=O)O)[C@@H](C)O)[C@@H](C)O` [unlabeled H3 peptide, reference compound] was tested. Which Ki ([1]; displacement of 5-FAM H3 10-mer (10 nM) from GST-PHD1 (2 μM)) did it give?
A: 0.95 ± 0.14 µM

Q: How did the Kd [2] turn out when ARTKQTARKS-{5‑FAM} [C-terminal 5-FAM H3 10-mer peptide, P68431 2-11] was run?
A: 0.95 µM

B1: unlabeled H3 10-mer peptide (peptide, UniProt P68431 2-11, looked up)
peptide: ARTKQTARKS
notes: histone H3 N-terminal tail 10-mer with unmodified K4 (H3K4me0); also called unlabeled H3K4me0 10-mer; H3K4me0 10-mer peptide
Q: With B1 as the molecule, how does the Ki [3] read?
A: 0.95 ± 0.14 µM
